Reference: patent US20100183561A1, “Biological therapeutic compositions and methods thereof” (ARTERIOCYTE MEDICAL SYSTEMS, priority 2008, published 2010)
Counter-ions that a name gives are not always drawn.

Columns and labels:
[1] = Thrombin activation of antibiotic-enriched bovine PRP, visual observation; format: physicochemical; conditions: for Observation of PRP/Platelet Gel: gelling / Observation of PRP/Platelet Gel: precipitation or aggregation: antibiotic ~75 ug/ml final in bovine PRP, 10% CaCl2 solution, ambient conditions; for Effect on activation of PRP and gel formation / properties of PRP: smaller quantities (sufficient for local application) dissolved in CaCl2 solution, bovine PRP
Text: Study Design: This example evaluated the appearance and characteristics of antibiotics-enriched bovine PRP. There were two variables in this study: 1) choice of antibiotics, and 2) presence/absence of thrombin. Two antibiotics were used to couple PRP in this study: 1) Vancomycin and 2) Cefazolin. Thrombin, a common reagent for activation of fibrinogen in PRP (for use as a gel would sealant), was used to activate platelet gel-antibiotics/PRP mixture formation, and compared to a mixture not activated by thrombin.
Preparation of Bovine PRP: 60 ml of Bovine blood (anti-coagulant added) was processed with the Magellan® system to obtain 6 ml of bovine PRP. Bovince PRP was stored in a refrigerator.
Dissolution of Antibiotics in CaCl2 solution: Initial target dose of antibiotics was based on body weight and was estimated at 1.5 mg/kg body weight per unit of PRP, or 105 mg for a 70 kg adult. 3 ml PRP was prepared from 60 ml Bovine Blood with the Magellan® System, resulting in a 2× standard concentration. 105 mg was dissolved into 3 mL of saline solution. 1 ml each of PRP Vancomycin/saline solution were combined to yield a product approximating standard PRP, containing desired amount of Vancomycin.
Vancomycin: To achieve the revised target dose of 75 ug/ml, 5 mg antibiotic was added per 6 ml 10% w/v CaCl2 solution used to reconstitute thrombin for activation of 6 ml PRP.
5 mg Vancomycin hydrochloride (Acros Organics) was dissolved into 6 ml 10% w/v CaCl2 solution at ambient conditions for a concentration of 833 ug/ml. Agitation was necessary to properly dissolve Vancomycin due to its large grain sizes.
Cefazolin: 5 mg Cefazolin hydrochloride (Alexis) was dissolved into 6 ml 10% w/v CaCl2 solution at ambient conditions for a concentration of 833 ug/ml. Slight agitation was necessary to dissolve Cefazolin.
1 kU of bovine thrombin was dissolved into 1 ml of Antibiotic/10% w/v CaCl2 solution or Vancomycin/10% w/v CaCl2 solution.
Preparation of Cefazolin- or Vancomycin-Coupled PRP: 0.6 ml of the bovine thrombin/Vancomycin/10% w/v CaCl2 solution was added to 6 ml of bovine PRP to obtain 6.6 ml of Vancomycin coupled PRP gel to produce an activated gel with a final concentration of ˜75 ug/ml.
For controls, 0.6 ml of the Vancomycin/10% w/v CaCl2 solution (without thrombin) was added to 6 ml of bovine PRP to obtain 6.6 ml of Vancomycin coupled PRP gel to produce an activated gel with a final concentration of ˜75 ug/ml.
Evaluation of Cefazolin- or Vancomycin-Coupled PRP: After mixing, the antibiotic-enriched PRP with and without thrombin were left on bench top. Visual observation was used to evaluate the appearance and characteristics of the mixture material. This process was conducted under ambient conditions.

[2] = as above; format: physicochemical; conditions: initial dose 1.05 g per unit PRP, 1 ml of 2× concentration bovine PRP + Vancomycin solution, no thrombin, Hydrochloride

Compound | Observation of PRP/Platelet Gel: gelling ([1]; Thrombin: Yes) | Observation of PRP/Platelet Gel: precipitation or aggregation ([1]; Thrombin: Yes) | Effect on activation of PRP and gel formation / properties of PRP [1] | Observation of PRP/Platelet Gel: precipitation or aggregation ([1]; Thrombin: No) | Appearance of PRP combined with antibiotic solution at initial (systemic-order) dose [2] | Appearance of PRP combined with antibiotic solution at initial (systemic-order) dose ([2]; listed as vancomycin)
Cc1nnc(SCC2=C(C(=O)[O-])N3C(=O)[C@@H](NC(=O)Cn4cnnn4)[C@H]3SC2)s1.[Na+] [Cefazolin, Cefazolin Sodium Salt] | Mixture gels immediately within minutes, | no precipitation or aggregation observed. | did not appear to alter the properties PRP |  |  | 
CN[C@H](CC(C)C)C(=O)N[C@H]1C(=O)N[C@@H](CC(N)=O)C(=O)N[C@H]2C(=O)N[C@H]3C(=O)N[C@H](C(=O)N[C@H](C(=O)O)c4cc(O)cc(O)c4-c4cc3ccc4O)[C@H](O)c3ccc(c(Cl)c3)Oc3cc2cc(c3O[C@@H]2O[C@H](CO)[C@@H](O)[C@H](O)[C@H]2O[C@H]2C[C@](C)(N)[C@H](O)[C@H](C)O2)Oc2ccc(cc2Cl)[C@H]1O [Vancomycin, Vancomycin Hydrochloride] | Mixture gels immediately within minutes; |  | did not interfere with or premarturely initiate activation of PRP and gel formation | white solid precipitates forming upon | Immediate aggregation of PRP into a solid | rapid formation of heterogenous solids
